Measurements taken from patent US10485235B2, “Aryloxypyrimidinyl ethers as herbicides” (FMC Corporation, priority 2015, dated 2019).

Legend:
Format in all cases: in vivo
[1] = test system: barnyardgrass (Echinochloa crus-galli); assay: Test A preemergence, barnyardgrass; conditions: Echinochloa crus-galli, pre-emergence, 240 h, Preemergence, 0 to 100 scale (0 no effect, 100 complete control), read-out: Plant response rating, Barnyardgrass; for pest or weed control at 125 g/ha: 125 g ai/ha; for pest or weed control at 500 g/ha: 500 g ai/ha
Procedure, shortened: (§1)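 Visual injury rating versus untreated controls on a 0 to 100 scale (0 = no effect, 100 = complete control), taken about 10 days after treatment in the greenhouse. Preemergence: directed soil spray over seeded loam–sand. Postemergence: spray on one- to two-leaf plants, 2 to 10 cm tall.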

kochia (Kochia scoparia) [2] = assay: Test A preemergence, kochia; conditions: Bassia scoparia, pre-emergence, 240 h, Preemergence, 0 to 100 scale (0 no effect, 100 complete control), read-out: Plant response rating, Kochia; for pest or weed control at 125 g/ha: 125 g ai/ha; for pest or weed control at 500 g/ha: 500 g ai/ha
Procedure, shortened: as §1

[3] = test system: ragweed (common ragweed, Ambrosia elatior); assay: Test A preemergence, ragweed; conditions: Ambrosia artemisiifolia, pre-emergence, 240 h, Preemergence, 0 to 100 scale (0 no effect, 100 complete control), read-out: Plant response rating, Ragweed; for pest or weed control at 125 g/ha: 125 g ai/ha; for pest or weed control at 500 g/ha: 500 g ai/ha
Procedure, shortened: as §1

[4] = test system: pigweed (Amaranthus retroflexus); assay: Test A preemergence, pigweed; conditions: Amaranthus retroflexus, pre-emergence, 240 h, Preemergence, 0 to 100 scale (0 no effect, 100 complete control), read-out: Plant response rating, Pigweed; for pest or weed control at 125 g/ha: 125 g ai/ha; for pest or weed control at 500 g/ha: 500 g ai/ha
Procedure, shortened: as §1

[5] = test system: barnyardgrass (Echinochloa crus-galli); assay: Test A postemergence, barnyardgrass; conditions: Echinochloa crus-galli, post-emergence, 240 h, postemergence, 0 to 100 scale, 0 is no effect, 100 is complete control, approximately 10 days, read-out: Plant response rating, Barnyardgrass; for pest or weed control at 125 g/ha: 125 g ai/ha; for pest or weed control at 500 g/ha: 500 g ai/ha
Procedure, shortened: as §1

kochia (Kochia scoparia) [6] = assay: Test A postemergence, kochia; conditions: Bassia scoparia, post-emergence, 240 h, postemergence, 0 to 100 scale, 0 is no effect, 100 is complete control, approximately 10 days, read-out: Plant response rating, Kochia; for pest or weed control at 125 g/ha: 125 g ai/ha; for pest or weed control at 500 g/ha: 500 g ai/ha
Procedure, shortened: as §1

[7] = test system: ryegrass, Italian (Italian ryegrass, Lolium multiflorum); assay: Test A postemergence, Italian ryegrass; conditions: Lolium multiflorum, post-emergence, 240 h, postemergence, 0 to 100 scale, 0 is no effect, 100 is complete control, approximately 10 days, read-out: Plant response rating, Ryegrass, Italian; for pest or weed control at 125 g/ha: 125 g ai/ha; for pest or weed control at 500 g/ha: 500 g ai/ha
Procedure, shortened: as §1

[8] = test system: foxtail, giant (giant foxtail, Setaria faberii); assay: Test A postemergence, giant foxtail; conditions: Setaria faberi, post-emergence, 240 h, postemergence, 0 to 100 scale, 0 is no effect, 100 is complete control, approximately 10 days, read-out: Plant response rating, Foxtail, Giant; for pest or weed control at 125 g/ha: 125 g ai/ha; for pest or weed control at 500 g/ha: 500 g ai/ha
Procedure, shortened: as §1

[9] = test system: wheat (Triticum aestivum); assay: Test A postemergence, wheat; conditions: Triticum aestivum, post-emergence, 240 h, postemergence, 0 to 100 scale, 0 is no effect, 100 is complete control, approximately 10 days, read-out: Plant response rating, Wheat; for plant injury at 125 g/ha: 125 g ai/ha; for plant injury at 500 g/ha: 500 g ai/ha
Procedure, shortened: as §1

corn (Zea mays) = assay: Test A postemergence, corn; conditions: Zea mays, post-emergence, 240 h, postemergence, 0 to 100 scale, 0 is no effect, 100 is complete control, approximately 10 days; for Corn plant response rating (crop injury, 0 = no effect, 100 = complete kill) at 125 g/ha: 125 g ai/ha; for Corn plant response rating (crop injury, 0 = no effect, 100 = complete kill) at 500 g/ha: 500 g ai/ha
Procedure, shortened: as §1

[10] = test system: blackgrass (Alopecurus myosuroides); assay: Test A postemergence, blackgrass; conditions: Alopecurus myosuroides, post-emergence, 240 h, postemergence, 0 to 100 scale, 0 is no effect, 100 is complete control, approximately 10 days, read-out: Plant response rating, Blackgrass; for pest or weed control at 125 g/ha: 125 g ai/ha; for pest or weed control at 500 g/ha: 500 g ai/ha
Procedure, shortened: as §1

[11] = test system: galium (catchweed bedstraw, Galium aparine); assay: Test A postemergence, galium; conditions: Galium, post-emergence, 240 h, postemergence, 0 to 100 scale, 0 is no effect, 100 is complete control, approximately 10 days, read-out: Plant response rating, Galium; for pest or weed control at 125 g/ha: 125 g ai/ha; for pest or weed control at 500 g/ha: 500 g ai/ha
Procedure, shortened: as §1

[12] = test system: sedge, umbrella (small-flower umbrella sedge, Cyperus difformis); assay: Test B flooded paddy test, umbrella sedge; conditions: Cyperus difformis; 250 g ai/ha, Flood; visual rating after 13 to 15 days; scale 0 to 100, 0 is no effect, 100 is complete control; read-out: Plant response rating, Sedge, Umbrella
Procedure, shortened: (§2)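 2-leaf plants; flood to 3 cm, dose into water, hold depth; greenhouse 13–15 d; visual score 0–100 vs controls; dash = not tested.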

[13] = test system: ducksalad (Heteranthera limosa); assay: Test B flooded paddy test, ducksalad; conditions: Heteranthera limosa; 250 g ai/ha, Flood; visual rating after 13 to 15 days; scale 0 to 100, 0 is no effect, 100 is complete control; read-out: Plant response rating, Ducksalad
Procedure, shortened: as §2

Compound	pest or weed control at 125 g/ha [1] [%]	pest or weed control at 500 g/ha [1] [%]	pest or weed control at 125 g/ha (kochia (Kochia scoparia) [2]) [%]	pest or weed control at 500 g/ha (kochia (Kochia scoparia) [2]) [%]	pest or weed control at 125 g/ha [3] [%]	pest or weed control at 500 g/ha [3] [%]	pest or weed control at 125 g/ha [4] [%]	pest or weed control at 500 g/ha [4] [%]	pest or weed control at 125 g/ha [5] [%]	pest or weed control at 500 g/ha [5] [%]	pest or weed control at 125 g/ha (kochia (Kochia scoparia) [6]) [%]	pest or weed control at 500 g/ha (kochia (Kochia scoparia) [6]) [%]	pest or weed control at 125 g/ha [7] [%]	pest or weed control at 125 g/ha [8] [%]	plant injury at 125 g/ha [9] [%]	Corn plant response rating (crop injury, 0 = no effect, 100 = complete kill) at 125 g/ha (corn (Zea mays)) [%]	pest or weed control at 125 g/ha [10] [%]	pest or weed control at 125 g/ha [11] [%]	pest or weed control at 250 g/ha [12] [%]	pest or weed control at 250 g/ha [13] [%]	other results
FC(F)C(F)(F)COc1c(Br)cccc1Oc1ncc(Cl)cn1 [Compound 18, 2-[3-bromo-2-(2,2,3,3-tetrafluoropropoxy)phenoxy]-5-chloropyrimidine]	100	100	30	100	0	10	100	100	30	100	100	100	0	40	0	20	20	80	0	30	pest or weed control at 500 g/ha [7]: 60%; pest or weed control at 500 g/ha [8]: 100%; plant injury at 500 g/ha [9]: 20%; Corn plant response rating (crop injury, 0 = no effect, 100 = complete kill) at 500 g/ha (corn (Zea mays)): 30%; pest or weed control at 500 g/ha [10]: 80%; pest or weed control at 500 g/ha [11]: 100%
N#Cc1cccc(Oc2ncc(Cl)cn2)c1OCCC(F)(F)F [Compound 23, 3-[(5-chloro-2-pyrimidinyl)oxy]-2-(3,3,3-trifluoropropoxy)benzonitrile]	100	–	100	–	90	–	100	–	90	–	100	–	40	90	70	90	70	90	100	100	pest or weed control at 31 g/ha ([1]; 31 g ai/ha): 70%; pest or weed control at 31 g/ha (kochia (Kochia scoparia) [2]; 31 g ai/ha): 100%; pest or weed control at 31 g/ha ([3]; 31 g ai/ha): 0%; pest or weed control at 31 g/ha ([4]; 31 g ai/ha): 100%; pest or weed control at 31 g/ha ([5]; 31 g ai/ha): 50%; pest or weed control at 31 g/ha (kochia (Kochia scoparia) [6]; 31 g ai/ha): 90%; pest or weed control at 31 g/ha ([7]; 31 g ai/ha): 20%; pest or weed control at 31 g/ha ([8]; 31 g ai/ha): 20%; plant injury at 31 g/ha ([9]; 31 g ai/ha): 20%; Corn plant response rating (crop injury, 0 = no effect, 100 = complete kill) at 31 g/ha (corn (Zea mays); 31 g ai/ha): 10%; pest or weed control at 31 g/ha ([10]; 31 g ai/ha): 20%; pest or weed control at 31 g/ha ([11]; 31 g ai/ha): 60%
Fc1cccc(Oc2ncc(Cl)cn2)c1OCC(F)(F)F [Compound 28]	10	70	0	20	0	0	0	100	0	20	0	10	0	0	0	0	0	0	0	30	pest or weed control at 500 g/ha [7]: 0%; pest or weed control at 500 g/ha [8]: 20%; plant injury at 500 g/ha [9]: 0%; Corn plant response rating (crop injury, 0 = no effect, 100 = complete kill) at 500 g/ha (corn (Zea mays)): 10%; pest or weed control at 500 g/ha [10]: 20%; pest or weed control at 500 g/ha [11]: 20%
